Measured values published in ChEMBL document CHEMBL5104091, “Pyridazine as a privileged structure: An updated review on anticancer activity of pyridazine containing bioactive molecules” (Eur J Med Chem, 2021).
In brackets after ≈: the same amount, converted by molar mass.

Legend:
[1] = test system: MIA PaCa-2; test: Antiproliferative activity against human MIA PaCa-2 cells assessed as cell growth inhibition by propidium iodide staining based fluorescence assay; type: functional
[2] = test system: HT-29; test: Antiproliferative activity against human HT-29 cells assessed as cell growth inhibition by propidium iodide staining based fluorescence assay; type: functional
[3] = test system: HUVEC; test: Antiproliferative activity against VEGF-stimulated human HUVEC cells assessed as cell growth inhibition at 10 uM incubated for 72 hrs by resazurin dye based AlamarBlue assay relative to control; type: functional
[4] = target: Tyrosine-protein kinase BTK (Homo sapiens, UniProt Q06187); test: Inhibition of BTK (unknown origin) incubated for 30 mins in presence of ATP by fluorescence based analysis
[5] = test system: TMD8; test: Cytotoxicity against human TMD8 cells assessed as cell growth inhibition measured after 72 hrs by WST-1 assay; type: functional, cell-based; conditions: TMD8, 72 h
[6] = test system: MDA-MB-231; test: Antiproliferative activity against human MDA-MB-231 cells assessed as cell growth inhibition measured after 48 hrs by WST-1 assay; type: functional, cell-based; conditions: MDA-MB-231, 48 h
[7] = test system: MDA-MB-231; test: Potency index, ratio of 5-Fu IC50 to compound IC50 for antiproliferative activity against human MDA-MB-231 cells assessed as cell growth inhibition measured after 48 hrs by WST-1 assay; type: functional
[8] = test system: MCF7; test: Antiproliferative activity against human MCF7 cells assessed as cell growth inhibition; type: functional, cell-based
[9] = test system: MDA-MB-231; test: Antiproliferative activity against human MDA-MB-231 cells assessed as cell growth inhibition; type: functional, cell-based
[10] = test system: HaCaT; test: Antiproliferative activity against human HaCaT cells assessed as cell growth inhibition; type: functional, cell-based
[11] = test system: A549; test: Antiproliferative activity against human A549 cells assessed as cell growth inhibition; type: functional, cell-based
[12] = target: Epidermal growth factor receptor (Homo sapiens, UniProt P00533); test: Inhibition of EGFR (unknown origin)
[13] = test system: Hs746T; test: Antiproliferative activity against human Hs746T cells assessed as cell growth inhibition measured after 72 hrs by WST-1 assay; type: functional, cell-based
[14] = target: T1, Hepatocyte growth factor receptor (Homo sapiens, UniProt P08581); test: Inhibition of human recombinant c-MET in presence of ATP by HTRF assay
[15] = test system: HepG2; test: Antiproliferative activity against human HepG2 cells assessed as inhibition of cell growth measured after 48 hrs by MTT assay; type: functional, cell-based; conditions: HepG2, 48 h
[16] = test system: MCF7; test: Antiproliferative activity against human MCF7 cells assessed as cell growth inhibition measured after 48 hrs by MTT assay; type: functional, cell-based; conditions: MCF7, 48 h
[17] = test system: PC-3; test: Antiproliferative activity against human PC3 cells assessed as cell growth inhibition; type: functional
[18] = test system: K562; test: Antiproliferative activity against human K562 cells assessed as cell growth inhibition; type: functional
[19] = target: T2, Poly [ADP-ribose] polymerase 1 (Homo sapiens, UniProt P09874); test: Inhibition of PARP1 (unknown origin) incubated for 30 mins by ELISA assay
[20] = test system: A549; test: Antiproliferative activity against human A549 cells assessed as cell growth inhibition measured after 48 hrs by MTT assay; type: functional, cell-based; conditions: A549, 48 h
[21] = test system: A549; test: Potency index, ratio of Sorafenib IC50 to compound IC50 for antiproliferative activity against human A549 cells assessed as cell growth inhibition measured after 48 hrs by MTT assay; type: functional
[22] = target: Vascular endothelial growth factor receptor 2 (Homo sapiens, UniProt P35968); test: Inhibition of VEGFR2 (unknown origin) using ULight-4E-BP1 peptide as substrate incubated for 1 hr in presence of ATP by fluorescence based analysis
[23] = target: T1, Hepatocyte growth factor receptor; test: Inhibition of c-Met (unknown origin) incubated for 20 to 30 mins in presence of [33P]-ATP by scintillation counter analysis
[24] = test system: SH-SY5Y; test: Anticancer activity against human SH-SY5Y cells assessed as cell growth inhibition measured upto 72 hrs by MTS assay; type: functional, cell-based
[25] = test system: Hep 3B2; test: Anticancer activity against human Hep3B cells assessed as cell growth inhibition measured upto 72 hrs by MTS assay; type: functional, cell-based
[26] = test system: MDA-MB-436; test: Antiproliferative activity against human MDA-MB-436 cells assessed as cell growth inhibition measured after 72 hrs by MTT assay; type: functional, cell-based; conditions: MDA-MB-436, 72 h
[27] = test system: A-375; test: Cytotoxicity against human A-375 cells assessed as cell growth inhibition; type: functional, cell-based
[28] = test system: COLO 205; test: Cytotoxicity against human COLO 205 cells assessed as cell growth inhibition; type: functional, cell-based
[29] = test system: HCT-116; test: Cytotoxicity against human HCT-116 cells assessed as cell growth inhibition; type: functional, cell-based
[30] = target: T2, Poly [ADP-ribose] polymerase 1; test: Inhibition of PARP1 (unknown origin) by colorimetric assay
[31] = target: Protein deacetylase HDAC6 (Homo sapiens, UniProt Q9UBN7); test: Inhibition of HDAC6 (unknown origin) measured after 15 mins by fluorescence based assay
[32] = Cytotoxicity against human CEM cells assessed as cell growth inhibition measured after 48 to 72 hrs by hoechst and PI staining based analysis; type: toxicity; conditions: CCRF-CEM cells, time 48-72 hrs
[33] = test system: MDA-MB-231; test: Cytotoxicity against human MDA-MB-231 cells assessed as cell growth inhibition measured after 48 to 72 hrs by hoechst and PI staining based analysis; type: functional; conditions: time 48-72 hrs
[34] = test system: IMR-32; test: Cytotoxicity against human IMR-32 cells assessed as cell growth inhibition; type: functional, cell-based
[35] = test system: HepG2; test: Cytotoxicity against human HepG2 cells assessed as cell growth inhibition measured after 72 hrs by MTT assay; type: functional, cell-based; conditions: HepG2, 72 h
[36] = test system: MCF7; test: Cytotoxicity against human MCF7 cells assessed as cell growth inhibition measured after 72 hrs by MTT assay; type: functional, cell-based; conditions: MCF7, 72 h
[37] = test system: A549; test: Cytotoxicity against human A549 cells assessed as cell growth inhibition measured after 72 hrs by MTT assay; type: functional, cell-based; conditions: A549, 72 h
[38] = test system: SW-620; test: Cytotoxicity against human SW-620 cells assessed as cell growth inhibition measured after 48 hrs by SRB assay; type: functional
[39] = test system: A498; test: Cytotoxicity against human A498 cells assessed as cell growth inhibition measured after 48 hrs by SRB assay; type: functional
[40] = test system: MDA-MB-435; test: Cytotoxicity against human MDA-MB-435 cells assessed as cell growth inhibition measured after 48 hrs by SRB assay; type: functional
[41] = test system: SR; test: Cytotoxicity against human SR cells assessed as cell growth inhibition measured after 48 hrs by SRB assay; type: functional
[42] = test system: SF-295; test: Cytotoxicity against human SF-295 cells assessed as cell growth inhibition measured after 48 hrs by SRB assay; type: functional
[43] = test system: MDA-MB-468; test: Cytotoxicity against human MDA-MB-468 cells assessed as cell growth inhibition measured after 48 hrs by SRB assay; type: functional
[44] = test system: MCF7; test: Cytotoxicity against human MCF7 cells assessed as cell growth inhibition measured after 48 hrs by SRB assay; type: functional
[45] = test system: PC-3; test: Cytotoxicity against human PC-3 cells assessed as cell growth inhibition measured after 48 hrs by SRB assay; type: functional
[46] = test system: OVCAR-3; test: Cytotoxicity against human OVCAR-3 cells assessed as cell growth inhibition measured after 48 hrs by SRB assay; type: functional
[47] = test system: KM12; test: Cytotoxicity against human KM12 cells assessed as cell growth inhibition measured after 48 hrs by SRB assay; type: functional
[48] = test system: HCT-15; test: Cytotoxicity against human HCT-15 cells assessed as cell growth inhibition measured after 48 hrs by SRB assay; type: functional
[49] = test system: UACC-62; test: Cytotoxicity against human UACC-62 cells assessed as cell growth inhibition measured after 48 hrs by SRB assay; type: functional
[50] = test system: SK-MEL-5; test: Cytotoxicity against human SK-MEL-5 cells assessed as cell growth inhibition measured after 48 hrs by SRB assay; type: functional
[51] = test system: CCRF-SB; test: Cytotoxicity against human CCRF-SB cells assessed as cell growth inhibition measured after 48 hrs by MTT assay; type: functional, cell-based
[52] = test system: NALM-6; test: Cytotoxicity against human NALM-6 cells assessed as cell growth inhibition measured after 48 hrs by MTT assay; type: functional, cell-based; conditions: NALM-6, 48 h
[53] = test system: MCF7; test: Cytotoxicity against human MCF7 cells assessed as cell growth inhibition measured after 48 hrs by MTT assay; type: functional, cell-based; conditions: MCF7, 48 h

T1 sequence (P08581 whole entry): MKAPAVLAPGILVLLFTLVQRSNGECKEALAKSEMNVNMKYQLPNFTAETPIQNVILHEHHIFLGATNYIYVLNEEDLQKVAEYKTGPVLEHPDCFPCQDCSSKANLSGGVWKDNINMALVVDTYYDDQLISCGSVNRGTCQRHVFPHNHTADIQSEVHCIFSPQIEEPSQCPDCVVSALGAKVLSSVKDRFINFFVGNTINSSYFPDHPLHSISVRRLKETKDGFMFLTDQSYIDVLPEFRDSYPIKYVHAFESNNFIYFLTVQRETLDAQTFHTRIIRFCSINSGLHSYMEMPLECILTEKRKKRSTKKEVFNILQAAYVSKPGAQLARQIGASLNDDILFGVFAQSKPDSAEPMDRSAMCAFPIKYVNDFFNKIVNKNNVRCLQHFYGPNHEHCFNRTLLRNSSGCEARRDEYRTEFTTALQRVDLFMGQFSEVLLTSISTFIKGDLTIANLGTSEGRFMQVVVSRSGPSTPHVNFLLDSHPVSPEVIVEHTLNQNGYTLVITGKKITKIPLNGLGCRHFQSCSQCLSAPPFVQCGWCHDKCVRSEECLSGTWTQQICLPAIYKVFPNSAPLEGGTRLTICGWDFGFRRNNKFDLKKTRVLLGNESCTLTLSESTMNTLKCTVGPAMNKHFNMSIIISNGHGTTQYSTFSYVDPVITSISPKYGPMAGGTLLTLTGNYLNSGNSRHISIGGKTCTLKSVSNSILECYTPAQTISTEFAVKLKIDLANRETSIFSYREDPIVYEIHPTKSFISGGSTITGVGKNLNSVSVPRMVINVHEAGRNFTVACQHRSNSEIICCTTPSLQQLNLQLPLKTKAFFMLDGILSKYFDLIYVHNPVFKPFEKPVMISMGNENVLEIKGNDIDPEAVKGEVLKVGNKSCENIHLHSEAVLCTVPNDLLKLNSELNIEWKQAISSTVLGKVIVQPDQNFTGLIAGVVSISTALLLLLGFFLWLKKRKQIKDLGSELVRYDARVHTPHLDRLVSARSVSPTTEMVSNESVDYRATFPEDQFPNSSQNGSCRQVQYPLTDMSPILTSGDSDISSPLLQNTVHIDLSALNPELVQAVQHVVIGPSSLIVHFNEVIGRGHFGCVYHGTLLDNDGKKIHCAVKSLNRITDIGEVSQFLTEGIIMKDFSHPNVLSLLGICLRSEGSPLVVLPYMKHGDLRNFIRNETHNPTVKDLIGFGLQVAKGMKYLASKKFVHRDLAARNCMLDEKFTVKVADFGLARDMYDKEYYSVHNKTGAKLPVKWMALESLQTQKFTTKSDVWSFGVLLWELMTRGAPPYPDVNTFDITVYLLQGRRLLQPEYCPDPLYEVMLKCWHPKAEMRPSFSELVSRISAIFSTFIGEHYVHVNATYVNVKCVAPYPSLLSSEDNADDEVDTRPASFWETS
T2 sequence (P09874 whole entry): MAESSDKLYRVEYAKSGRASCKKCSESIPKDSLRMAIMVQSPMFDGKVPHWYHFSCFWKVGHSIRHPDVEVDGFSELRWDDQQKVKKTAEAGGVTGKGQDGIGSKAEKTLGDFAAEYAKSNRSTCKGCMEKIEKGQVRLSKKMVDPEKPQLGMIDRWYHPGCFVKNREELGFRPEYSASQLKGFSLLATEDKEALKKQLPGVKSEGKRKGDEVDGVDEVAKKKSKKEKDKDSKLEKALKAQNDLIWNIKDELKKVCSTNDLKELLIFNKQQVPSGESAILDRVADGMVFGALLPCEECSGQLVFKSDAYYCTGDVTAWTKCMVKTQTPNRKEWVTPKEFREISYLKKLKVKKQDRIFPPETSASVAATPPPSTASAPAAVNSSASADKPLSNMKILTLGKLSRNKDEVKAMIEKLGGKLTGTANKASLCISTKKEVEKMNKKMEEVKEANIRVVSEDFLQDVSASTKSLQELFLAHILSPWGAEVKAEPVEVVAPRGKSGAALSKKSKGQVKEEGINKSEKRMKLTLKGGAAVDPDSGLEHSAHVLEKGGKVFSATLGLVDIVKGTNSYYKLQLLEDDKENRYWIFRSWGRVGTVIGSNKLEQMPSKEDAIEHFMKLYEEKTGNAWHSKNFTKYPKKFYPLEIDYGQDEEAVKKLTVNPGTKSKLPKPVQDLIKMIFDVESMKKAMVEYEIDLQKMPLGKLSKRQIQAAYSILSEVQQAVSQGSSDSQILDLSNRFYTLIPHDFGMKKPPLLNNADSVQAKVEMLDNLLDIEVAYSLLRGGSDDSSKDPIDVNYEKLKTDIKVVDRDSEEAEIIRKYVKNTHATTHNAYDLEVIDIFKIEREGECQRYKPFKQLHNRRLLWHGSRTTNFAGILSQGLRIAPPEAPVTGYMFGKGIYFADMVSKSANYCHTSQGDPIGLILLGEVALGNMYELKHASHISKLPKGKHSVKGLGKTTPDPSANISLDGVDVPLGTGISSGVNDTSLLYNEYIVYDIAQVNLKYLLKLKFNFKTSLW
Chain of Tyrosine-protein kinase BTK (Q06187 whole entry): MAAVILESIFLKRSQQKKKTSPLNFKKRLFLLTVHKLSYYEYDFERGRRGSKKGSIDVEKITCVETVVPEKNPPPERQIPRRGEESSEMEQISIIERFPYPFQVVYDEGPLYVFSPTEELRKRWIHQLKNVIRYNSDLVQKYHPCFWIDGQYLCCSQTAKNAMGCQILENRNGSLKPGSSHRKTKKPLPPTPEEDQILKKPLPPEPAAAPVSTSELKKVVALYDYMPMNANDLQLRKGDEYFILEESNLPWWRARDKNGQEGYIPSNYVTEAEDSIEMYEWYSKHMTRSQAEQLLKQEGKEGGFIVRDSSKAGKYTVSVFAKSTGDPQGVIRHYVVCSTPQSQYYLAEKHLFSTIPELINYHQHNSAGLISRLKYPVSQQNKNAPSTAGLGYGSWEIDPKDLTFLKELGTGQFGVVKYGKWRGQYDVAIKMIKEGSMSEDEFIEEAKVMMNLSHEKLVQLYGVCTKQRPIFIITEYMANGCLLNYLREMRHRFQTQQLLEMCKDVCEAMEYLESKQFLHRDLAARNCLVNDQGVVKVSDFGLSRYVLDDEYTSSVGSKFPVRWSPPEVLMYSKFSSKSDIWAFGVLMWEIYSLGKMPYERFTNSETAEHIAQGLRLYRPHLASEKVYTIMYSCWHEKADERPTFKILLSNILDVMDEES
Chain of Epidermal growth factor receptor (P00533 whole entry): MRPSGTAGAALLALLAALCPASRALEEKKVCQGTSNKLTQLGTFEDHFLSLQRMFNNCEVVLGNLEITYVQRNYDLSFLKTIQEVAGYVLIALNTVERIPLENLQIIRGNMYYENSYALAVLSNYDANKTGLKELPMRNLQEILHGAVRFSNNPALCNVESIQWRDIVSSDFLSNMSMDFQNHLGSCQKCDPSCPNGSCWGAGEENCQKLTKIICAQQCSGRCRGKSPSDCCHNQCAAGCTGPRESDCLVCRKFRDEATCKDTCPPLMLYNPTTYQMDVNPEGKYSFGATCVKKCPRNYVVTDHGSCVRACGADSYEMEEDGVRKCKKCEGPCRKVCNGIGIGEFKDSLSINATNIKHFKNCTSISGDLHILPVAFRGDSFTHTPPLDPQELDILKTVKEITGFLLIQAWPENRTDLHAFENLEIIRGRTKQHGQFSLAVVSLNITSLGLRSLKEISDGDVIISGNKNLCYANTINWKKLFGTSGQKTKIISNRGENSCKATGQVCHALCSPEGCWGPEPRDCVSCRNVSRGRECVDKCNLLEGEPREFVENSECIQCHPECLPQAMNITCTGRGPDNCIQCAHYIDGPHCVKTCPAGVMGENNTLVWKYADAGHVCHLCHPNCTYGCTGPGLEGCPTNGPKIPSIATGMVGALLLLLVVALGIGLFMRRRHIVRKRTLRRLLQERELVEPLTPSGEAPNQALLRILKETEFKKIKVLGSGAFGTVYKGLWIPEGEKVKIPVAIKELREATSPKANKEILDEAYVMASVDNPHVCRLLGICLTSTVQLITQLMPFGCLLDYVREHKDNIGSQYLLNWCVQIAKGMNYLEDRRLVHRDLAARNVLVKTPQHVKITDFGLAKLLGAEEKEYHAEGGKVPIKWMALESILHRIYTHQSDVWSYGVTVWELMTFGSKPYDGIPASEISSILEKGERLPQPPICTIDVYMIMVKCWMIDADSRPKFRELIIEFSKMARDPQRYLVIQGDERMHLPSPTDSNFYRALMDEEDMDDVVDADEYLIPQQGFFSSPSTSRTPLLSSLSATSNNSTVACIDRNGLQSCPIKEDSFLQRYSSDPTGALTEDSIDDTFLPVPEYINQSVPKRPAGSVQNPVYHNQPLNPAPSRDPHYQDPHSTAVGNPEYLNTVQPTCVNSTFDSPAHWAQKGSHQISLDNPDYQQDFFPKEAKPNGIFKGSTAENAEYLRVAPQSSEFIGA

COc1nc2ccc(C)cc2cc1Cc1cc(-c2ccccc2)n[nH]c1=O
IC50 [1]: 2200 nM | IC50 [2]: 4500 nM

O=C(Nc1ccc(Oc2nnc(Cl)c3ccccc23)cc1)Nc1ccc(Cl)c(C(F)(F)F)c1
inhibition at 10 µM [3]: 71.6%

CC(C)Nc1ccc2nnc(-c3cc(-c4cnn(C5CCN(CCO)CC5)c4)cnc3N)n2n1
IC50 [4]: 33 nM | IC50 [5]: 800 nM

O=C1Nc2ccc(Cl)cc2/C1=N/Nc1nnc(-c2ccc(Cl)cc2)c2ccccc12
IC50 [6]: 12000 nM | Ratio IC50 [7]: 2.4

COc1ccc(-c2nc(N3N=C(c4ccc(F)cc4)CCC3=O)n(C)c(=O)c2C#N)cc1
IC50 [8]: 3430 nM | IC50 [9]: 2560 nM | IC50 [10]: > 50000 nM

CC(C)[Si](C#Cc1cc(-n2cc(Cn3nc(-c4ccccc4)cc(-c4ccccc4)c3=O)nn2)cc(C#C[Si](C(C)C)(C(C)C)C(C)C)n1)(C(C)C)C(C)C
IC50 [11]: 5 µg/mL (≈ 6.52 µM) | IC50 [8]: 3.25 µg/mL

CN(C)c1ccc(/C=N/NC(=O)Cn2nc(Cc3ccc(Cl)cc3)c3ccccc3c2=O)cc1
IC50 [12]: 0.45 nM

O=c1ccc(-c2cccnc2)nn1CC1CN(c2ncc(-c3cnn(C4CCNCC4)c3)cn2)CCO1 (centres undefined)
IC50 [13]: 1900 nM | IC50 [14]: 35 nM

O=c1[nH]nc(-c2nnc(S)o2)c2ccccc12
IC50 [15]: 4500 nM | IC50 [16]: 4900 nM

CC1(C)CC(=O)C2=C(C1)n1c(=O)c3ccccc3c(=O)n1C2
GI50 [17]: 5300 nM | GI50 [18]: 9400 nM

O=C(Nc1nc(-c2ccccc2)cs1)c1ccc(Cc2n[nH]c(=O)c3cccnc23)cc1
IC50 [19]: 45.5 nM

CNC(=O)c1cc(Oc2ccc(NC(=O)c3nn(-c4ccc(Cl)cc4)cc(C)c3=O)cc2)ccn1
IC50 [20]: 370 nM | Ratio IC50 [21]: 3.4 | IC50 [22]: 0.12 nM

O=C(O)c1ccccc1Nc1ccc2nnc(-c3ccncc3)n2n1
IC50 [23]: 107000 nM

Cc1cccc(/C=N/NC(=O)Cn2nc(N3CCN(c4ccc(Cl)cc4)CC3)ccc2=O)c1
IC50 [24]: 23200 nM | IC50 [25]: 24300 nM

O=C(/C=C/c1cccc([N+](=O)[O-])c1)N1CCN(C(=O)c2cc(Cc3n[nH]c(=O)c4ccccc34)ccc2F)CC1
IC50 [26]: 11600 nM

O=C(NC(Cc1c[nH]c2ccccc12)C1C(=O)N=C2C=CC=NN21)c1ccccc1 (centres undefined)
IC50 [27]: 14 nM | IC50 [28]: 21 nM

N=C(N)NS(=O)(=O)c1ccc(Nc2ccc3nc4ccccc4c(=O)n3n2)cc1
IC50 [29]: 11900 nM

O=C(/C=C/c1ccc(CCCCCCc2n[nH]c(=O)c3cc(F)ccc23)cc1)NO
IC50 [30]: 7 nM | IC50 [31]: 57 nM

O=c1c(Cl)c(Cl)cnn1-c1ccc(Cl)c(C(F)(F)F)c1
CC50 [32]: 330 nM | CC50 [33]: 2630 nM

Cc1n[nH]c(=O)c2c1c1cc(F)ccc1n2Cc1cn(C2CCCCC2)nn1
IC50 [34]: 40 nM

COc1cc2c(Oc3ccc(NC(=O)c4nn(-c5ccccc5)ccc4=O)cc3F)ccnc2cc1OCCCN1CCN(C)CC1
IC50 [35]: 490 nM | IC50 [36]: 6 nM | IC50 [37]: 3 nM

CCOC(=O)c1cc(C(=O)c2cc(OC)c(OC)c(OC)c2)n2nc(C)ccc12
GI50 [38]: < 100 nM | GI50 [39]: < 100 nM | GI50 [40]: 25.6 nM | GI50 [41]: 48.1 nM | GI50 [42]: < 100 nM | GI50 [43]: < 100 nM | GI50 [44]: 48.1 nM | GI50 [45]: < 100 nM | GI50 [46]: < 100 nM | GI50 [47]: < 100 nM | GI50 [48]: < 100 nM | GI50 [49]: < 100 nM | GI50 [50]: < 100 nM

Clc1ccc2nnc(-c3c[nH]c4ccccc34)n2n1
IC50 [51]: 1640 nM | IC50 [52]: 1140 nM | IC50 [53]: 3550 nM
